Entries after “also recorded” stand apart in the source; their conditions may differ.

Consider 5 compounds from patent publication US20220047598A1, “Use of Casein Kinase 1 Inhibitors For Treating Vascular Diseases” (Qanatpharma AG, priority 2018, published 2022).

In test [1] the test system is mTNF reverse signaling (ERK1/2 phosphorylation) in mesenteric vascular smooth muscle cells. Nature of the test: ERK1/2 phosphorylation by western blot in microvascular smooth muscle cells cultured from mouse mesenteric arteries. The note with it: for sTNFR1-Fc-induced ERK1/2 phosphorylation: microvascular smooth muscle cells, inhibitor concentration not given. The test is classed as cell-based. The method, then:
(§1) Referring to FIG. 1, microvascular smooth muscle cells were cultured form mouse mesenteric arteries and ERK1/2 phosphorylation was assessed by standard western blotting. Murine cremaster skeletal muscle resistance arteries were assessed by pressure myography. mTNF reverse signaling was induced by the intrinsically active TNF type I receptor construct, sTNFR1-Fc.
These findings were verified in cremaster skeletal muscle resistance arteries. […] Importantly, none of the above treatments affected agonist-induced vasoconstriction.
(§2) Referring to FIG. 3, mouse cremaster skeletal muscle resistance arteries were isolated and cannulated for pressure myography. Stepwise increases in transmural pressure (20-100 mmHg in 20 mmHg steps) elicit myogenic vasoconstriction. […] (FIG. 3d) CKI-7 is not effective in the absence of TNF signaling (i.e., TNF knockout arteries, TNF KO). (FIG. 3e) Phenylephrine-induced vasoconstriction in TNF KO arteries is not affected by CKI-7.

Test [2] relates to mouse cremaster skeletal muscle resistance arteries. Nature of the test: Pressure myography of isolated cremaster skeletal muscle resistance arteries: myogenic responsiveness, compound applied in vitro. The note with it: for dose dependence of reduction in myogenic responsiveness: dose-response in vitro, n=4-6 vessels per dose. The method, then: as §1
Referring to FIG. 3, mouse cremaster skeletal muscle resistance arteries were isolated and cannulated for pressure myography. Stepwise increases in transmural pressure (20-100 mmHg in 20 mmHg steps) elicit myogenic vasoconstriction.
Referring to FIG. 4, mouse cremaster skeletal muscle resistance arteries were isolated and cannulated for pressure myography. Stepwise increases in transmural pressure (20-100 mmHg in 20 mmHg steps) elicit myogenic vasoconstriction.
(§3) Referring to FIG. 5, mouse cremaster skeletal muscle resistance arteries were isolated at mid-rest phase (ZT7) or mid-active phase (ZT19) and cannulated for pressure myography. One-step increases in transmural pressure (60 to 100 mmHg) elicit myogenic vasoconstriction. […] (FIG. 5c) Cremaster muscle resistance arteries underwent pressure myography and western blotting subsequently assessed ERK1/2 phosphorylation. […] (FIG. 5d) Representative western blot.
Referring to FIG. 6a to c, mice underwent myocardial infarction (ligation of the left-anterior descending coronary artery) or sham surgery. […] Cremaster skeletal muscle resistance arteries were isolated and cannulated for pressure myography.

The test system is the same in test [3]. Nature of the test: Phenylephrine (agonist)-induced vasoconstriction in isolated cremaster resistance arteries. The note with it: for phenylephrine-induced vasoconstriction (vessel health): wild-type arteries treated in vitro.
The subject of test [4] is mTNF reverse signaling in cremaster skeletal muscle resistance arteries. Description: sTNFR1-Fc-stimulated vasoconstriction / mTNF reverse signaling in cremaster resistance arteries. Details: species or system mouse. The method, then: as §1, §2
Test [5] relates to ERK1/2 phosphorylation in cremaster resistance arteries. Nature of the test: ERK1/2 phosphorylation by western blot in isolated cremaster resistance arteries after pressure myography. Details: species or system mouse.
Excerpt: as §2
as §3, with “blot. (FIG. 5e) Resting diameter of the vessels is not affected by PF-670462. (FIG. 5f) Prior to administration of PF-670462, vessel health is intact as shown by robust vasoconstriction to phenylephrine. […] (FIG. 5h) Vessel health, indicated by robust phenylephrine-induced vasoconstriction, is not affected by PF-670462 administration.” for “blot.”
On the technique in general: Immunoblotting shows a protein as a band on a membrane.

Another test deals with CK1D/E. The note with it: read-out: published IC50; cited from earlier work.
For test [6], the system named is heart failure (myocardial infarction) mice. Nature of the test: Chronic treatment of mice after myocardial infarction (heart failure) or sham surgery. The note with it: 7 wks. Format: in vivo, mouse. As to the method: Referring to FIG. 6g to j, following myocardial infarction or sham surgery, mice were chronically treated with PF-670462 (30 mg/kg, intraperitoneal injection) or vehicle (DMSO) for 7 wks (5 days/wk). […] (FIG. 6h) HF-induced elevations in myogenic tone are normalized by chronic treatment with PF-670462. (FIG. 6i)
Phenylephrine-induced vasoconstriction is intact with chronic PF-670462 treatment. Reduced tone at lower concentrations of phenylephrine in the PF-670462-treated group is the result of changes in resting myogenic tone. (FIG. 6j) Cardiac output, the quantification of blood outflow from the heart assessed with echocardiography, is elevated with chronic PF-670462 treatment.

For test [7], the system named is cremaster skeletal muscle resistance arteries. Description: In vivo treatment of naive mice, then pressure myography of cremaster arteries. The note with it: for myogenic responsiveness: naive mice, 24 hrs later, ZT7. The arrangement: species or system mouse. As to the method: Referring to FIG. 6d to f, naive mice were treated with PF-670462 (30-50 mg/kg dissolved in 200 μL water, intraperitoneal injection) or vehicle (200 μL water). 24 hrs later, in mid-rest phase (ZT7), cremaster skeletal muscle resistance arteries underwent pressure myography. […] (FIG. 6e) Phenylephrine-induced vasoconstriction is not altered by in vivo application of PF-670462.

A short description of test [8]: Mean arterial blood pressure after acute injection. The test is classed as in vivo, mouse. The note with it: acute injection 30 mg/kg intraperitoneal, n=3 per group.
Test [9] concerns mTNF reverse signaling in human embryonic kidney (HEK) cells. Description: mTNF reverse signaling (ERK1/2 phosphorylation) in transfected HEK cells stimulated with TNF antibody. The test is classed as cell-based. The note with it: HEK cells transfected 24 hrs, stimulated 5 min. The text has this: Importantly, the cytoplasmic tail of mTNF contains the casein kinase 1 (CK1) recognition site (S(P)-X-X-S) that is removed in Trunc TNF, indicating the necessity for CK1 binding in mTNF reverse signaling.

Test [10] concerns skeletal muscle resistance arteries. The note with it: scavenging TNF; cited from earlier work.
For test [11] the following is noted: scavenging TNF; cited from earlier work.
The mark [12] stands for this setting: in vitro application, concentration not given.
Setting [13] is: chronic treatment 30 mg/kg intraperitoneal.

`NCCNS(=O)(=O)c1ccc(Cl)c2ccncc12` [CKI-7]: the “ERK1/2 phosphorylation in response to sTNFRI-Fc” value in [1] (mesenteric vascular smooth muscle cells, inhibitor 1 μM) was “inhibited”. The “sTNFR1-Fc-induced ERK1/2 phosphorylation” value in test [1] is recorded as “abolished”. Besides, the myogenic responsiveness entry was “reduces myogenic responsiveness” in [2] (10 μM in vitro, transmural pressure 20-100 mmHg in 20 mmHg steps) and “reduces myogenic responsiveness” in test [2] (setting [12]). Further, the “myogenic responsiveness in TNF knockout arteries” value in test [2] (TNF−/− (TNF KO) arteries, in vitro) is “not effective”. For the same compound, in [2], the “dose dependence of reduction in myogenic responsiveness” value was “dose-dependent reductions”. Further, the “phenylephrine-induced vasoconstriction in TNF KO arteries” value in test [3] (TNF KO arteries) is “not affected”. Also, the “phenylephrine-induced vasoconstriction (vessel health)” value in [3] is “remains intact”. Also, the “sTNFR1-Fc-induced mTNF reverse signaling” value in [4] (cremaster arteries, in vitro application) is “abrogates”. Further, the sTNFR1-Fc-stimulated vasoconstriction result in test [4] (sTNFR1-Fc 100 ng/mL) is “prevented”. For the same compound, in test [5] (isolated cremaster resistance arteries after pressure myography), the “sTNFR1-Fc-stimulated ERK1/2 phosphorylation” value is reported as “inhibited”.

With `Nc1nccc(-c2c(-c3ccc(F)cc3)ncn2C2CCCCC2)n1` [PF-670462], in the test with CK1D/E, the IC50 (usually the concentration needed to halve the response being measured) is 7.7 to 14 nM. Moreover, the “sTNFR1-Fc-induced ERK1/2 phosphorylation” value in test [1] is given as “abolished”. Further, the “HF-induced elevations in myogenic tone” value in test [6] (30 mg/kg intraperitoneal, 5 days/wk) is given as “normalized”. For the same compound, in [6] (setting [13]), the “cardiac output (echocardiography)” value was “elevated”. Besides, the phenylephrine-induced vasoconstriction result in test [6] (setting [13]) is “intact”; in test [7] (in vivo application 30-50 mg/kg intraperitoneal), “not altered”; in test [3] (arteries from HF and sham mice, 550 nM in vitro) it was “intact”. Also, the myogenic responsiveness entry was “reduce myogenic responsiveness” in test [7] (30 mg/kg intraperitoneal), “reduce myogenic responsiveness” in test [7] (50 mg/kg intraperitoneal), “reduces myogenic responsiveness” in test [2] (550 nM in vitro) and “reduces myogenic responsiveness” in [2] (setting [12]). Further, the “myogenic responsiveness in isolated cremaster arteries” value in [7] (applied in vivo, dose not given) is listed as “reduced myogenic responsiveness”. Further, the “myogenic responsiveness in arteries from HF mice” value in test [2] (550 nM in vitro in bath, 8 weeks post myocardial infarction) is on record as “normalizes myogenic responsiveness”. Moreover, the “myogenic tone in sham-operated mice” value in test [2] (550 nM in vitro in bath, sham arteries) is “does not affect myogenic tone”. The “myogenic tone in arteries from HF and sham mice” value in [2] (550 nM in vitro, 30 minutes, both HF and sham groups) was “attenuated to same level”. Moreover, the “reversibility of the reduction in myogenic responsiveness” value in test [2] (550 nM in vitro, repeated replacements of the incubating buffer) was “reversible”. Also, the “myogenic responsiveness at mid-rest phase” value in [2] (10 μM in vitro, ZT7, one-step pressure 60 to 100 mmHg) is recorded as “reduces myogenic responsiveness only during the rest phase (ZT7)”. In [2] (10 μM in vitro, ZT19, one-step pressure 60 to 100 mmHg), the “myogenic responsiveness at mid-active phase” value is “not during the active phase (ZT19)”. Further, the “dose dependence of reduction in myogenic tone at mid-rest phase” value in [2] (ZT7, n=4-7 vessels per dose) is listed as “dose-dependently reduces myogenic tone”. For the same compound, the “resting diameter of the vessels” value in test [2] (ZT7/ZT19 arteries) was “not affected”. Also, the vessel dilation entry in test [2] (ZT7/ZT19 arteries, before pressure stimulation) is on record as “not affected”. For the same compound, the “dose dependence of reduction in myogenic responsiveness” value in [2] is on record as “dose-dependent decreases”. In addition, the “myogenic responsiveness in wild-type arteries” value in test [2] (wild-type (WT) arteries, compared with TNF knockout) is on record as “inhibits myogenic responsiveness”. The “mean arterial blood pressure (MAP)” value in [8] is reported as “reduces mean arterial blood pressure”. In test [3], the “phenylephrine-induced vasoconstriction (vessel health)” value is reported as “intact; also recorded: not affected”. In [5] (cremaster arteries isolated at ZT7 or ZT19), the “ERK1/2 phosphorylation, ZT7 versus ZT19” value is “reduces ERK1/2 phosphorylation to a greater extent during the rest phase (ZT7)”.

Consider `Nc1ncnc2c1c(COc1cccc(Cl)c1)nn2C1CCOCC1` [PF-4800567], for which, in test [2] (30 μM in vitro), the myogenic responsiveness result was “abrogates myogenic responsiveness”. Further, the “dose dependence of reduction in myogenic responsiveness” value in [2] was “dose-dependent reduction”. Also, the “concentration inhibiting myogenic responses relative to the IC50” value in test [2] (fold greater than the IC50) is on record as around 1000 ×. In test [3] (30 μM dose, corrected to baseline tone), the “reduction in phenylephrine-induced vasoconstriction after correction to baseline tone” value is “remains after correction to baseline tone”. Moreover, the phenylephrine-induced vasoconstriction result in test [3] (arteries treated at the 30 μM dose) was “reduced”.

As for Adalimumab, the “mTNF reverse signaling (ERK1/2 phosphorylation)” value in test [9] is listed as “not stimulated unless the HEK cells express a tumour necrosis factor (TNF) plasmid construct”.

For Etanercept, the “skeletal muscle resistance artery myogenic responsiveness” value in test [10] is on record as “attenuates skeletal muscle resistance artery myogenic responsiveness”. Besides, the systemic blood pressure entry in test [11] is given as “reduces systemic blood pressure”.
